Measurements published in ChEMBL document CHEMBL1201862, “PubChem BioAssay data set” (2004).
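48-hour exposure; five concentrations; linearly interpolated endpoints. Abbreviation: GI50, concentration required for 50% inhibition of growth.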 Active and inactive are the calls of the source. No stated cut-off is given here; in the data, active = GI50 up to about 1.1 µM and inactive = higher.

Key:
Assay in all cases: NCI tumour cell line growth inhibition, 48 h
A498 = system: A498
ACHN = system: ACHN
HCC 2998 = system: HCC 2998
HCT-116 = system: HCT-116
HOP-62 = system: HOP-62
HOP-92 = system: HOP-92
HT-29 = system: HT-29
LOX IMVI = system: LOX IMVI
MDA-MB-231 = system: MDA-MB-231
MOLT-4 = system: MOLT-4
Malme-3M = system: Malme-3M
NCI-H226 = system: NCI-H226
NCI-H23 = system: NCI-H23
NCI-H522 = system: NCI-H522
OVCAR-3 = system: OVCAR-3
OVCAR-4 = system: OVCAR-4
SK-MEL-28 = system: SK-MEL-28
SK-OV-3 = system: SK-OV-3
SNB-75 = system: SNB-75
UACC-62 = system: UACC-62

Row | Structure (SMILES) | GI50 (A498) | GI50 (ACHN) | GI50 (HCC 2998) | GI50 (HCT-116) | GI50 (HOP-62) | GI50 (HOP-92) | GI50 (HT-29) | GI50 (LOX IMVI) | GI50 (MDA-MB-231) | GI50 (MOLT-4) | GI50 (Malme-3M) | GI50 (NCI-H226) | GI50 (NCI-H23) | GI50 (NCI-H522) | GI50 (OVCAR-3) | GI50 (OVCAR-4) | GI50 (SK-MEL-28) | GI50 (SK-OV-3) | GI50 (SNB-75) | GI50 (UACC-62)
1 | CC1=C(C(=O)Nc2ccc(Cl)c(C(=O)OC(C)C)c2)SCCO1 | 53.5 µM (inactive) | > 100 µM (inactive) | 54.8 µM (inactive) | > 77.4 µM (inactive) | > 91.4 µM (inactive) | 66.2 µM (inactive) | 25.7 µM (inactive) | 51.6 µM (inactive) | > 100 µM (inactive) | 40.4 µM (inactive) | 47.3 µM (inactive) | 75.3 µM (inactive) | 69.2 µM (inactive) | 36.4 µM (inactive) | 86.1 µM (inactive) | 56.8 µM (inactive) | 74.6 µM (inactive) | > 81.1 µM (inactive) | 75.9 µM (inactive) | 67.6 µM (inactive)
2 | CCOC(=O)C1=CC(C)(C(=O)OCC)Nc2c(nc(OC)n(C)c2=O)N1 (centres undefined) | > 10 µM (inactive) | > 10 µM (inactive) | > 10 µM (inactive) | > 10 µM (inactive) | > 10 µM (inactive) | > 10 µM (inactive) | > 10 µM (inactive) | > 10 µM (inactive) | > 10 µM (inactive) | > 10 µM (inactive) | > 10 µM (inactive) | > 10 µM (inactive) | > 10 µM (inactive) | > 10 µM (inactive) | > 10 µM (inactive) | > 10 µM (inactive) | > 10 µM (inactive) | > 10 µM (inactive) | > 10 µM (inactive) | –
3 | CCOC(=O)c1c(SC(=O)c2ccc(Cl)cc2)n(-c2ccccc2)c(=S)n(-c2ccccc2)c1=O | > 100 µM (inactive) | > 100 µM (inactive) | > 100 µM (inactive) | > 100 µM (inactive) | > 100 µM (inactive) | > 100 µM (inactive) | > 100 µM (inactive) | > 100 µM (inactive) | > 100 µM (inactive) | > 100 µM (inactive) | > 100 µM (inactive) | > 100 µM (inactive) | > 100 µM (inactive) | > 100 µM (inactive) | > 100 µM (inactive) | > 100 µM (inactive) | > 100 µM (inactive) | > 100 µM (inactive) | > 100 µM (inactive) | > 100 µM (inactive)
4 | Brc1ccccc1/C=C\C1(c2ccccc2)OCCO1 | 12.9 µM (inactive) | 8.51 µM (inactive) | 15.7 µM (inactive) | 4.98 µM (inactive) | 14.5 µM (inactive) | 23.3 µM (inactive) | 7.01 µM (inactive) | 3.34 µM (inactive) | 9.27 µM (inactive) | 0.238 µM (active) | 15.9 µM (inactive) | 18.3 µM (inactive) | 7.29 µM (inactive) | 8.11 µM (inactive) | 12.7 µM (inactive) | 4.26 µM (inactive) | 18.8 µM (inactive) | 13.6 µM (inactive) | 15 µM (inactive) | 14.7 µM (inactive)
